In ChEMBL document CHEMBL5214997, “6-Thioguanosine Monophosphate Prodrugs Display Enhanced Performance against Thiopurine-Resistant Leukemia and Breast Cancer Cells” (J Med Chem, 2022):
Active and inactive are the calls of the source. The calls are words filed in the database; no cut-off is given here.

Key:
HEK-293T [1] = assay: Antiproliferative activity against HEK293T cells with high HGPRT expression incubated for 48 hrs by CellTiter-Glo2 assay; format: functional, cell-based; settings: Homo sapiens
K562 [2] = assay: Antiproliferative activity against human K562 cells with low HGPRT expression incubated for 48 hrs by CellTiter-Glo2 assay; format: functional, cell-based; settings: K562, 48 h
THP-1 = assay: Antiproliferative activity against human THP-1 cells with low HGPRT expression incubated for 48 hrs by CellTiter-Glo2 assay; format: functional, cell-based; settings: THP-1, 48 h
SK-BR-3 [3] = assay: Antiproliferative activity against human SK-BR-3 cells with low HGPRT expression incubated for 48 hrs by CellTiter-Glo2 assay; format: functional, cell-based; settings: SK-BR-3, 48 h
HEK-293T [4] = assay: Effect on p21 mRNA expression in HEK293T cells assessed as increase in labeling efficiency at 100 uM incubated for 16 hrs and measured by TUC-Seq DUAL method; format: functional, cell-based; settings: Homo sapiens
K562 [5] = assay: Antiproliferative activity against human K562 cells with low HGPRT expression assessed as cell survival at 1000 uM and incubated for 48 hrs by CellTiter-Glo2 assay; format: functional; settings: read-out: Activity
SK-BR-3 [6] = assay: Drug resistance of human SK-BR-3 cells assessed as percentage of resistant cells at 1 mM; format: functional
K562 [7] = assay: Downregulation of HGPRT mRNA expression in human K562 cells at 1 mM measured after 48 hrs by qPCR analysis; format: functional, cell-based
SK-BR-3 [8] = assay: Downregulation of HGPRT mRNA expression in human SK-BR-3 cells at 1 mM measured after 48 hrs by qPCR analysis; format: functional, cell-based
[9] = Effect on CCNT1 mRNA expression in HEK293T cells assessed as percentage of labeled transcripts at 100 uM incubated for 2 hrs and measured by TUC-Seq DUAL method; format: functional, Homo sapiens, HEK-293T
[10] = Effect on p21 mRNA expression in HEK293T cells assessed as percentage of labeled transcripts at 100 uM incubated for 2 hrs and measured by TUC-Seq DUAL method; format: functional, Homo sapiens, HEK-293T
[11] = Effect on ND1 mRNA expression in HEK293T cells assessed as percentage of labeled transcripts at 100 uM incubated for 2 hrs and measured by TUC-Seq DUAL method; format: functional, Homo sapiens, HEK-293T

Row | EC50 (K562 [2]) | EC50 (THP-1) | SMILES | EC50 (HEK-293T [1]) | EC50 (SK-BR-3 [3]) | Activity (HEK-293T [4]) | viability at 1000 µM (K562 [5]) | Activity (SK-BR-3 [6]) | Activity (K562 [7]) | Activity (SK-BR-3 [8]) | Activity [9] | Activity [10] | Activity [11]
1 | 2.6 µM | 0.34 µM | CC(=O)Oc1ccc(COP(=O)(OCc2ccc(OC(C)=O)cc2)OC[C@H]2O[C@@H](n3cnc4c(SCc5ccc(OC(C)=O)cc5)nc(N)nc43)[C@H](O)[C@@H]2O)cc1 | 6.7 µM | 3.5 µM |  |  |  |  |  |  |  | 
2 | 2.3 µM | 0.67 µM | CC(=O)Oc1ccc(COP(=O)(O)OC[C@H]2O[C@@H](n3cnc4c(=S)[nH]c(N)nc43)[C@H](O)[C@@H]2O)cc1 | 6.9 µM | 201 µM | Active |  |  |  |  |  |  | 
3 | 62 µM | 8.4 µM | CC(C)(C)C(=O)SCCOP(=O)(OCCSC(=O)C(C)(C)C)OC[C@H]1O[C@@H](n2cnc3c(=S)[nH]c(N)nc32)[C@H](O)[C@@H]1O | 246 µM |  |  |  |  |  |  |  |  | 

More lines, now with the values behind:

Row | SMILES | EC50 (K562 [2]) | EC50 (THP-1) | EC50 (HEK-293T [1]) | EC50 (SK-BR-3 [3]) | Activity (HEK-293T [4]) | viability at 1000 µM (K562 [5]) | Activity (SK-BR-3 [6]) | Activity (K562 [7]) | Activity (SK-BR-3 [8]) | Activity [9] | Activity [10] | Activity [11]
4 | CCC(CC)COC(=O)[C@H](C)NP(=O)(OC[C@H]1O[C@@H](n2cnc3c(=S)[nH]c(N)nc32)[C@H](O)[C@@H]1O)Oc1ccccc1 (some centres not stated) | 92 µM | 33 µM |  |  |  |  |  |  |  |  |  | 
5 | Nc1nc2c(ncn2[C@@H]2O[C@H](COP3(=O)OCc4ccccc4O3)[C@@H](O)[C@H]2O)c(=S)[nH]1 (some centres not stated) | 7.2 µM | 1.4 µM | 14 µM | 25 µM | Active |  |  |  |  |  |  | 
6 | Nc1nc2c(ncn2[C@@H]2O[C@H](COP3(=O)OCc4cc(Cl)ccc4O3)[C@@H](O)[C@H]2O)c(=S)[nH]1 (some centres not stated) | 5.6 µM | 0.4 µM | 15 µM | 42 µM | Active |  |  |  |  |  |  | 
7 | Nc1nc2[nH]cnc2c(=S)[nH]1 [THIOGUANINE] | 0.74 µM | 0.27 µM | 3.6 µM |  |  | 15% | 40% | Active | Active |  |  | 
8 | Nc1nc(=S)c2ncn([C@@H]3O[C@H](CO)[C@@H](O)[C@H]3O)c2[nH]1 [THIOGUANOSINE] | 1.3 µM | 0.35 µM | 4.7 µM |  |  |  |  |  |  | 2.5% | 2.5% | 2.5%
